# Assay results taken from US4803209A, “Substituted 2,3-diphenyl-1,2-dihydroquinoxalines” (International Minerals & Chemical Corp., priority 1987, dated 1989).
# Where two headings read alike, the source gives them in different places.
# Key:
# kidney cell monolayer = assay: Toxicity to cultured kidney cell monolayer in the in vitro anticoccidial test; assay type: cell-based, chick; set-up: key: T: toxic (inhibited kidney cell monolayer formation); details: 3 days
# Experimental: For in vitro screen tests, Hubbard X Hubbard chicks were maintained on drug-free starter diets in brooders in a coccidia-free room. Water was available ad libitum. At 2-3 weeks of age, 3-6 chicks were sacrificed by decapitation and bled. All tissue culture preparation, propagation and test steps were carried out using strict aseptic techniques. Kidney cells next were combined in a single sterile tube and evenly dispersed by agitation. An appropriate dilution (usually 1/10X to 1/25X) was counted microscopically in a hemocytometer and the cell suspension diluted in 500 ml sterile bottles to 200,000 to 250,000 cells/ml of growth medium. Multiwell tissue culture plates (Falcon No. 3008 or Costar No. 3524) were employed in all in vitro screen tests. Immediately after preparation of the kidney cell suspension, each of the 24 wells of 20 to 60 multiwell plates was inoculated with 1 ml of cells using a sterile syringe-type continuous pipettor (Cornwall). Plates then were incubated at once in a 5% CO2 incubator at 39° C. and ≥80% humidity. At about 24 hours one plate was removed and briefly examined for monolayer initiation under phase microscopy at 200X. At 40-48 hours monolayer growth was well initiated and satisfactory for initiation of drug tests. At this time attached cells were spreading and putting out arm-like projections in many areas of each well. The medium on plates which would not be used for drug tests at this time was replaced with prewarmed EBSS plus antibiotics, and these plates were returned to the incubator until time of use 24 to 48 hours later. The latter step was incorporated to remove debris and toxins from the young cell monolayers and also delay monolayer growth until initiation of drug tests. For each test compound an estimated 10 mg of test compound was placed in a 15×150 mm disposable screw-cap test tube (Belco No. 2009-16150). In a typical test employing 25 multiwell plates, tubes containing test compounds were set up and four drops of dimethylsulfoxide (DMSO) were added to each tube. Next 10 ml sterile distilled water was added to each tube and the tubes were capped tightly and mixed by agitation. Primary compound solutions containing about 1000 ppm test compound were serially diluted in disposable tubes (Falcon No. 2051) containing 1/2 strength growth medium, to yield the concentrations shown in Table 3 below. Sterile 1 cc disposable syringes (Tomac) were employed both for making dilutions and adding test compounds to plates. In setting up drug tests, five multiwell plates containing 48-96 hr monolayers were removed as a group from the incubator. The medium was quickly poured off one multiwell plate and 0.5 ml of the lowest dilution of test compound was added to each of two wells in the first column of wells, and an equal volume of a higher dilution of the same substance was added to the remaining two wells in the same column. This procedure was repeated with the next test substance using the wells in the second column on the plate. Dilutions of the remaining test substances were placed in corresponding columns of the plate. After compounds had been added to the first set of five plates, 0.5 ml of a 2×10^5 /ml suspension of sporozoites was added to each well of each plate using a sterile continuous pipettor. To minimize the effects of exposing growth medium to the atmosphere, all additions were made rapidly and inoculated plates were immediately returned to the incubator. Three days after drug and sporozoite addition, plates were removed a few at a time from the incubator for enumeration of parasites. […] The medium was quickly discarded and counts made under phase microscopy at 200X of the total numbers of schizonts and […] per field in each of five random fields. The average number of parasites per field was then calculated. The results of the in vitro anticoccidial tests, which are given in Table 3 below, show the compounds to have toxic effects upon cultured cells.
# [1] = tested on: Eimeria tenella Eli Lilly Strain 65 (Lilly 65); assay: In vitro anticoccidial test in chick kidney cell monolayers; assay type: cell-based; details: 72 h, 3 days, read-out: % Inhibition of Coccidia
# [2] = Growth promotion and feed utilization in chicks; assay type: in vivo, chicks (broiler cockerels)
# [3] = tested on: Clostridium perfringens (Cp); assay type: cell-based; details: Anaerobic, 6 h, 37° C.
# [4] = tested on: Streptococcus sp. 1 X A7 (Strep A7); assay type: cell-based
# anaerobic bacteria = assay type: cell-based
# Salmonella typhimurium = assay type: cell-based
# [5] = tested on: E. coli strain 046 (E.C. 046); assay type: cell-based
# [6] = tested on: Bacteroides fragilis (Bf); assay: Antimicrobial growth inhibition, Bf; assay type: cell-based; details: Anaerobic, 6 h, 37° C.
# [7] = tested on: antibiotic resistant E. coli (E.C. 324); assay type: cell-based; details: Gram Neg., 6 h, 37° C., aerobic
# [8] = tested on: Streptococcus sp. 1 X C15 (Strep C15); assay type: cell-based
# [9] = experiment set 5, 75 ppm in feed, 8 weeks
SMILES,% Inhibition of Coccidia: T = toxic (kidney cell monolayer; 10.0 ppm),% Inhibition of Coccidia: T = toxic (kidney cell monolayer; 100 ppm),inhibition at 0.001 ppm [1] [%],inhibition at 0.01 ppm [1] [%],inhibition at 0.1 ppm [1] [%],inhibition at 1 ppm [1] [%],other results
"Oc1ccccc1C1=Nc2cc(Cl)c(Cl)cc2NC1c1ccccc1O (stereo not drawn) [Example 2, 2,3-di(2-hydroxyphenyl)-6,7-dichloro-1,2-dihydroquinoxaline]",T,T,42,71,89,100,
"COc1ccc(C2=Nc3cc(C)c(C)cc3NC2c2ccc(OC)cc2O)c(O)c1 (stereo not drawn) [Example 8, 2,3-di(2-hydroxy-4-methoxyphenyl)-6,7-dimethyl-1,2-dihydroquinoxaline]",T,T,0,9,12,99,
"Oc1ccc(Cl)cc1C1=Nc2ccccc2NC1c1cc(Cl)ccc1O (stereo not drawn) [Example 5, 2,3-di(2-hydroxy-5-chlorophenyl)-1,2-dihydroquinoxaline]",,T,1,0,6,31,inhibition at 10 ppm ([1]; 10.0 ppm): 100%
"Oc1ccc(Cl)cc1C1=Nc2cc(Cl)c(Cl)cc2NC1c1cc(Cl)ccc1O (stereo not drawn) [Example 1, 2,3-Di(2-hydroxy-5-chlorophenyl)-6-7-dichloro-1,2-dihydroquinoxaline]",T,T,53,67,61,98,"feed efficiency (% better or worse than control) [2, 9]: 13%; weight gain (% better or worse than control) [2, 9]: 6%; growth promotion / feed efficiency ([2]; in vivo): found to improve both weight gain and feed efficiency; Growth of Cp in the presence of the test compound ([3]; 6.4 ppm): -; Growth of Cp in the presence of the test compound ([3]; 64 ppm): -; Growth of Strep A7 in the presence of the test compound ([4]; 6.4 ppm): +; Growth of Strep A7 in the presence of the test compound ([4]; 64 ppm): +; activity against anaerobic bacteria (anaerobic bacteria): possessed activity against both anaerobic microorganisms; Growth of S.T. in the presence of the test compound (Salmonella typhimurium; 6.4 ppm): +; Growth of S.T. in the presence of the test compound (Salmonella typhimurium; 64 ppm): +; Growth of E.C. 046 in the presence of the test compound ([5]; 6.4 ppm): +; Growth of E.C. 046 in the presence of the test compound ([5]; 64 ppm): +; Growth of Bf in the presence of the test compound ([6]; 6.4 ppm): -; Growth of Bf in the presence of the test compound ([6]; 64 ppm): -; Growth of E.C. 324 in the presence of the test compound ([7]; 6.4 ppm): +; Growth of E.C. 324 in the presence of the test compound ([7]; 64 ppm): +; Growth of Strep C15 in the presence of the test compound ([8]; 6.4 ppm): +; Growth of Strep C15 in the presence of the test compound ([8]; 64 ppm): +"
